PubChem BioAssay (NCI)
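Where inhibition never reached the appropriate level, the endpoint shown equals the highest concentration tested. Otherwise, values were interpolated linearly from a five-concentration, 48-hour dose response in 96-well plates. GI50 = concentration required for 50% inhibition of growth. TGI marks complete inhibition of growth.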

Legend:
Experiment in all cases: NCI anticancer screen, dose series, 48 h
SK-OV-3 ovarian = test system: SK-OV-3 ovarian
OVCAR-3 ovarian = test system: OVCAR-3 ovarian
MALME-3M melanoma = test system: MALME-3M melanoma
MDA-N = test system: MDA-N
HCT-15 colon = test system: HCT-15 colon
MDA-MB-231 breast = test system: MDA-MB-231 breast
ACHN renal = test system: ACHN renal
786-0 renal = test system: 786-0 renal
U251 CNS = test system: U251 CNS
T-47D breast = test system: T-47D breast
A549 NSCLC = test system: A549 NSCLC

SMILES	TGI (SK-OV-3 ovarian) [µM]	TGI (OVCAR-3 ovarian) [µM]	TGI (MALME-3M melanoma) [µM]	TGI (MDA-N) [µM]	TGI (HCT-15 colon) [µM]	TGI (MDA-MB-231 breast) [µM]	TGI (ACHN renal) [µM]	TGI (786-0 renal) [µM]	TGI (U251 CNS) [µM]	TGI (T-47D breast) [µM]	GI50 (OVCAR-3 ovarian) [µM]	GI50 (MALME-3M melanoma) [µM]	GI50 (HCT-15 colon) [µM]	GI50 (MDA-MB-231 breast) [µM]	GI50 (ACHN renal) [µM]	GI50 (A549 NSCLC) [µM]	TGI (A549 NSCLC) [µM]	GI50 (U251 CNS) [µM]	GI50 (T-47D breast) [µM]	GI50 (SK-OV-3 ovarian) [µM]
O=C(c1ccco1)N(C(=S)OCc1ccccn1)c1ccccc1	> 100	> 100	79.2	> 100	> 100	> 100	> 100	> 100	> 100	> 100	–	–	–	–	–	–	–	–	–	–
COc1cccc(-c2nc3sccn3c2-c2ccnc(NCCNC(=O)Nc3cccc(C(F)(F)F)c3)n2)c1	–	20.3	26.8	–	16.4	12	19.1	–	19.8	13.8	4.22	3.86	3.05	3.47	3.17	3.82	17.1	3.95	3.77	–
CC[N+](CC)=c1ccc2nc3c(cc(N)c4ccccc43)oc-2c1	2.7	–	–	–	–	1.73	1.72	–	–	–	–	–	–	0.363	0.412	–	–	–	–	1.37
CCOC(=O)C(O)(NC(C)=O)C(F)(F)F (stereo not given)	> 100	> 100	> 100	> 100	> 100	–	> 100	–	> 100	> 100	–	–	–	–	–	–	> 100	–	–	–
COc1cc(C2C3=C(COC3=O)OC(C)(C)Oc3cc4c(cc32)OCO4)cc(OC)c1OC (stereo not given)	> 100	–	> 100	3.56	–	> 100	> 100	–	> 100	–	–	–	–	–	–	–	> 100	–	–	–
COC(=O)c1cncc2c1CC1C3(C(=O)OC)C=NC(C4C(CO)=CCC43)C21C (stereo not given)	–	–	> 100	> 100	> 100	> 100	> 100	> 100	> 100	> 100	–	–	–	–	–	–	> 100	–	–	–
N#Cc1c2c(c(N3CCOCC3)n3c1nc1ccccc13)CCCC2	67.7	36.5	34	38.7	36.2	54.7	31.3	41.3	28.3	41.5	–	–	–	–	–	–	61.7	–	–	–
Cc1cc(S(=O)(=O)Nc2nnc3cc(C(F)(F)F)cc(C)n23)c(S)cc1Cl	> 90.2	> 100	> 100	> 100	> 100	> 100	> 100	> 100	> 81.5	> 100	–	–	–	–	–	–	52.8	–	–	–
CCCCN(c1ccccc1)c1ncnc2c1cnn2C	> 100	> 100	77.7	> 100	> 100	> 100	> 100	> 100	> 100	99.1	–	–	–	–	–	–	> 100	–	–	–
O=C(O)c1ccc(Nc2nc3cc(C(F)(F)F)ccc3nc2C(=O)O)cc1	–	> 100	> 100	> 100	> 100	> 100	> 100	> 100	> 100	–	–	–	–	–	–	–	–	–	–	–
Cc1ccc2c(c1)OC1Nc3ccccc3C1=C2O (stereo not given)	64.3	21.1	> 100	68.1	> 100	69.4	60.8	66	57.5	85	–	–	–	–	–	–	> 100	–	–	–
COS(=O)c1cc(Cl)cc(Cl)c1O (stereo not given)	> 100	> 100	> 100	–	–	–	> 100	–	> 100	–	–	–	–	–	–	–	–	–	–	–
O=C1C=CC(=O)c2ncccc21	37.2	4.13	9.78	16.1	5.72	8.06	7.98	7.61	17	5.18	–	–	–	–	–	–	28.8	–	–	–
CCCCCCCCCCCCCCCCCCOCC(O)COP(=O)(O)OCC1OC(n2cc(F)c(=O)[nH]c2=O)CC1O (stereo not given)	44.8	46.7	33.9	28.2	23.7	36.1	> 41.6	17.8	22.4	38.8	–	–	–	–	–	–	25.9	–	–	–
COC(=O)[C@@H]1N2C(=S)N(c3ccccc3)C(=O)[C@H]2SC1(C)C	> 100	> 100	–	> 100	> 100	> 100	> 100	> 100	> 100	> 100	–	–	–	–	–	–	> 100	–	–	–
Cc1[nH]c(-c2ccccc2)c(-c2ccc(Cl)cc2)c1C(=O)ONC(=O)c1ccccc1	32.4	14.9	23.5	4.45	21.6	12.1	3.48	4.46	3.6	18.1	–	–	–	–	–	–	10.4	–	–	–
C=C1C[C@]23C[C@@]1(O)CC[C@H]2[C@@]12C=C[C@H](O)[C@@](C)(C(=O)O1)[C@H]2[C@@H]3C(=O)O	> 100	> 100	> 100	–	> 100	–	–	> 100	> 100	–	–	–	–	–	–	–	> 100	–	–	–
O=C(O)c1ccccc1/C=N\NC1=NCCCCN1	> 100	> 100	> 100	> 100	> 100	> 100	> 100	> 100	> 100	> 100	–	–	–	–	–	–	> 100	–	–	–
CCOP(=O)(OCC)C(Nc1ccc(F)cc1)c1cccc([N+](=O)[O-])c1 (stereo not given)	> 100	> 100	> 100	> 100	> 100	> 100	> 100	–	> 100	–	–	–	–	–	–	–	> 100	–	–	–
COC1/C=C/C(C)C(C(C)C(OC)C(C)CCC(=O)C(C)C(CCC(=O)O)OC)OC(=O)/C=C/C=C(\C)CC(OC)CC2=CC(=O)O[C@@H](C(C)C(OC)CC(OC)/C=C/C(C)C(OC)C1)[C@H]2O (stereo not given in full)	4.06	1.72	2.94	> 5	> 5	1.78	2.93	> 4.55	1.39	> 5	–	–	–	–	–	–	> 5	–	–	–
